#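 Values below derive from 48-hour exposures of cells grown in 96-well plates, with endpoints linearly interpolated between the two concentrations bracketing the appropriate inhibition level. GI50 is the concentration that inhibits growth by half. TGI is the concentration that stops growth completely.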
# What was measured:
# Assay in all cases: growth of human tumour cells (NCI), 48 h
# SK-OV-3 ovarian = test system: SK-OV-3 ovarian
# HOP-92 NSCLC = test system: HOP-92 NSCLC
# CCRF-CEM leukemia = test system: CCRF-CEM leukemia
# ACHN renal = test system: ACHN renal
# LOX IMVI melanoma = test system: LOX IMVI melanoma
# U251 CNS = test system: U251 CNS
# UO-31 renal = test system: UO-31 renal
# EKVX NSCLC = test system: EKVX NSCLC
# TK-10 renal = test system: TK-10 renal
# HCC-2998 colon = test system: HCC-2998 colon
structure (smiles),measurement,setting,value
CC(O)(CNS(=O)(=O)c1ccccc1)c1ccccc1 (centres undefined),TGI,SK-OV-3 ovarian,> 100 µM
same,TGI,HOP-92 NSCLC,> 100 µM
same,TGI,CCRF-CEM leukemia,> 100 µM
same,TGI,ACHN renal,> 100 µM
same,TGI,LOX IMVI melanoma,> 100 µM
same,TGI,U251 CNS,> 100 µM
same,TGI,UO-31 renal,> 100 µM
same,TGI,EKVX NSCLC,> 100 µM
same,TGI,TK-10 renal,> 100 µM
C1=C(c2ccccc2)C(c2ccc(OCCN3CCCCC3)cc2)Oc2ccccc21 (centres undefined),GI50,HOP-92 NSCLC,1.56 µM
same,TGI,HOP-92 NSCLC,3.25 µM
same,GI50,CCRF-CEM leukemia,2.46 µM
same,TGI,CCRF-CEM leukemia,6.46 µM
same,GI50,ACHN renal,1.66 µM
same,TGI,ACHN renal,3.15 µM
same,GI50,LOX IMVI melanoma,1.65 µM
same,TGI,LOX IMVI melanoma,3.01 µM
same,GI50,U251 CNS,1.65 µM
same,TGI,U251 CNS,3.18 µM
same,GI50,UO-31 renal,1.41 µM
same,TGI,UO-31 renal,3.16 µM
same,GI50,HCC-2998 colon,1.72 µM
same,TGI,HCC-2998 colon,3.38 µM
same,GI50,EKVX NSCLC,1.54 µM
same,TGI,EKVX NSCLC,3.35 µM
same,GI50,TK-10 renal,1.69 µM
same,TGI,TK-10 renal,3.4 µM
N[C@@H]1CCCC[C@@H]1N.O=C([O-])CN(CP(=O)([O-])[O-])CP(=O)([O-])[O-].[Pt+2],GI50,SK-OV-3 ovarian,> 100 µM
same,TGI,SK-OV-3 ovarian,> 100 µM
same,GI50,HOP-92 NSCLC,> 100 µM
same,TGI,HOP-92 NSCLC,> 100 µM
same,GI50,CCRF-CEM leukemia,29 µM
same,TGI,CCRF-CEM leukemia,93.4 µM
same,GI50,ACHN renal,> 100 µM
same,TGI,ACHN renal,> 100 µM
same,GI50,LOX IMVI melanoma,> 100 µM
same,TGI,LOX IMVI melanoma,> 100 µM
same,GI50,U251 CNS,> 100 µM
same,TGI,U251 CNS,> 100 µM
same,GI50,UO-31 renal,> 100 µM
same,TGI,UO-31 renal,> 100 µM
same,GI50,HCC-2998 colon,> 100 µM
same,TGI,HCC-2998 colon,> 100 µM
same,GI50,TK-10 renal,> 100 µM
same,TGI,TK-10 renal,> 100 µM
COc1cc2c([C@@H](OC(=O)c3ccccc3)c3ccc4c(c3)OCO4)nccc2c(OC)c1OC,TGI,SK-OV-3 ovarian,> 100 µM
same,TGI,HOP-92 NSCLC,> 100 µM
same,TGI,CCRF-CEM leukemia,> 100 µM
same,TGI,LOX IMVI melanoma,> 100 µM
same,TGI,U251 CNS,> 100 µM
same,TGI,UO-31 renal,24.9 µM
same,TGI,HCC-2998 colon,> 100 µM
same,TGI,EKVX NSCLC,> 100 µM
same,TGI,TK-10 renal,> 100 µM
C[C@@H](Oc1ccc2[nH]nc(/C=C/c3cnn(CCO)c3)c2c1)c1c(Cl)cncc1Cl,GI50,SK-OV-3 ovarian,1.29 µM
same,TGI,SK-OV-3 ovarian,6.15 µM
same,GI50,HOP-92 NSCLC,0.0168 µM
same,TGI,HOP-92 NSCLC,0.0987 µM
same,GI50,CCRF-CEM leukemia,0.105 µM
same,TGI,CCRF-CEM leukemia,5 µM
same,GI50,ACHN renal,0.284 µM
same,TGI,ACHN renal,> 100 µM
same,GI50,LOX IMVI melanoma,0.0593 µM
same,TGI,LOX IMVI melanoma,0.281 µM
same,GI50,U251 CNS,0.142 µM
same,TGI,U251 CNS,2.41 µM
same,GI50,UO-31 renal,0.217 µM
same,GI50,HCC-2998 colon,1.43 µM
same,TGI,HCC-2998 colon,5.21 µM
same,GI50,TK-10 renal,0.251 µM
same,TGI,TK-10 renal,1.68 µM
Cc1[nH]nc2c1C(=O)C=C(N(CCO)c1ccccc1)C2=O,TGI,SK-OV-3 ovarian,> 100 µM
same,TGI,HOP-92 NSCLC,> 100 µM
same,TGI,CCRF-CEM leukemia,> 100 µM
same,TGI,LOX IMVI melanoma,> 100 µM
same,TGI,U251 CNS,> 100 µM
same,TGI,UO-31 renal,> 100 µM
same,TGI,HCC-2998 colon,> 100 µM
same,TGI,EKVX NSCLC,> 100 µM
same,TGI,TK-10 renal,> 100 µM
CS(=O)(=O)CCn1c(=O)c(Oc2ccc(F)cc2F)cc2cnc(NC3CCOCC3)nc21,GI50,SK-OV-3 ovarian,> 25 µM
same,TGI,SK-OV-3 ovarian,> 25 µM
same,GI50,HOP-92 NSCLC,2.64 µM
same,TGI,HOP-92 NSCLC,> 25 µM
same,GI50,CCRF-CEM leukemia,> 25 µM
same,TGI,CCRF-CEM leukemia,> 25 µM
same,GI50,ACHN renal,> 25 µM
same,TGI,ACHN renal,> 25 µM
same,GI50,LOX IMVI melanoma,> 25 µM
same,TGI,LOX IMVI melanoma,> 25 µM
same,GI50,U251 CNS,> 25 µM
same,TGI,U251 CNS,> 25 µM
same,GI50,UO-31 renal,> 25 µM
same,TGI,UO-31 renal,> 25 µM
same,GI50,HCC-2998 colon,> 25 µM
same,TGI,HCC-2998 colon,> 25 µM
same,GI50,TK-10 renal,> 25 µM
same,TGI,TK-10 renal,> 25 µM
CC(=O)/C=C/C1=C(c2cccs2)c2ccccc2CC1,GI50,SK-OV-3 ovarian,42 µM
same,TGI,SK-OV-3 ovarian,> 100 µM
same,GI50,CCRF-CEM leukemia,25.3 µM
same,TGI,CCRF-CEM leukemia,54.2 µM
same,GI50,ACHN renal,22.5 µM
same,TGI,ACHN renal,57.5 µM
same,GI50,LOX IMVI melanoma,17.8 µM
same,TGI,LOX IMVI melanoma,34.2 µM
same,GI50,U251 CNS,22.8 µM
same,TGI,U251 CNS,51.1 µM
same,GI50,UO-31 renal,25.7 µM
same,TGI,UO-31 renal,86.4 µM
same,GI50,HCC-2998 colon,25.8 µM
same,TGI,HCC-2998 colon,59.8 µM
same,GI50,EKVX NSCLC,35.1 µM
same,TGI,EKVX NSCLC,> 100 µM
same,GI50,TK-10 renal,32 µM
same,TGI,TK-10 renal,> 100 µM
COc1cc(NCC2COc3c(ccc(OC)c3OC)C2=O)c([N+](=O)[O-])cc1OC (centres undefined),TGI,SK-OV-3 ovarian,> 100 µM
same,TGI,CCRF-CEM leukemia,> 100 µM
same,TGI,ACHN renal,> 100 µM
same,TGI,LOX IMVI melanoma,> 100 µM
same,TGI,U251 CNS,> 100 µM
same,TGI,UO-31 renal,> 100 µM
same,TGI,EKVX NSCLC,> 100 µM
same,TGI,TK-10 renal,> 100 µM
O=C(NNS(=O)(=O)c1ccc(F)cc1)c1cccnc1Nc1ccc(Cl)cc1Cl,GI50,SK-OV-3 ovarian,38.1 µM
same,TGI,SK-OV-3 ovarian,> 100 µM
same,GI50,HOP-92 NSCLC,15.4 µM
same,TGI,HOP-92 NSCLC,36.1 µM
same,GI50,CCRF-CEM leukemia,21.1 µM
same,TGI,CCRF-CEM leukemia,> 100 µM
same,GI50,ACHN renal,46.1 µM
same,TGI,ACHN renal,> 100 µM
same,GI50,LOX IMVI melanoma,32.1 µM
same,TGI,LOX IMVI melanoma,> 100 µM
same,GI50,U251 CNS,29.1 µM
same,TGI,U251 CNS,> 100 µM
same,GI50,HCC-2998 colon,30 µM
same,TGI,HCC-2998 colon,> 100 µM
same,GI50,EKVX NSCLC,29.5 µM
same,TGI,EKVX NSCLC,> 100 µM
same,GI50,TK-10 renal,33.8 µM
same,TGI,TK-10 renal,> 100 µM
Cc1ccc(NC(=O)C2C(=O)N(c3ccc(C)c(C)c3)C(=O)/C2=N\NC(N)=S)cc1C (centres undefined),TGI,SK-OV-3 ovarian,> 100 µM
same,TGI,HOP-92 NSCLC,> 100 µM
same,TGI,CCRF-CEM leukemia,> 100 µM
same,TGI,ACHN renal,> 100 µM
same,TGI,LOX IMVI melanoma,> 100 µM
same,TGI,U251 CNS,> 100 µM
same,TGI,UO-31 renal,> 100 µM
same,TGI,EKVX NSCLC,> 100 µM
same,TGI,TK-10 renal,> 100 µM
O=C(Nc1ccccc1O)c1ccc(CNC(=O)c2sccc2Nc2ccnc(C(F)(F)F)c2)cc1,GI50,SK-OV-3 ovarian,10.6 µM
same,TGI,SK-OV-3 ovarian,37.3 µM
same,GI50,CCRF-CEM leukemia,1.01 µM
same,TGI,CCRF-CEM leukemia,> 100 µM
same,GI50,ACHN renal,4.95 µM
same,TGI,ACHN renal,26.5 µM
same,GI50,LOX IMVI melanoma,5.51 µM
same,TGI,LOX IMVI melanoma,18.9 µM
same,GI50,U251 CNS,5.44 µM
same,TGI,U251 CNS,20.8 µM
same,GI50,UO-31 renal,2.82 µM
same,TGI,UO-31 renal,15.9 µM
same,GI50,HCC-2998 colon,10.1 µM
same,TGI,HCC-2998 colon,22.4 µM
same,GI50,EKVX NSCLC,8.77 µM
same,TGI,EKVX NSCLC,57.7 µM
same,GI50,TK-10 renal,4.76 µM
same,TGI,TK-10 renal,22.7 µM
CCCCCC(O)(CCCCC)CCCCCCCCC1=C(O)c2[nH]c(=O)ccc2C(=O)C1=O,TGI,SK-OV-3 ovarian,29.6 µM
same,TGI,HOP-92 NSCLC,28.1 µM
same,TGI,CCRF-CEM leukemia,48.1 µM
same,TGI,ACHN renal,19.2 µM
same,TGI,LOX IMVI melanoma,24 µM
same,TGI,U251 CNS,16.7 µM
same,TGI,UO-31 renal,26.1 µM
same,TGI,HCC-2998 colon,27.8 µM
same,TGI,EKVX NSCLC,28.8 µM
Cc1nc2cc(Nc3nc(Nc4ccc(F)cc4)nc(N4CCN(C)CC4)n3)ccc2n1Cc1ccccc1,GI50,SK-OV-3 ovarian,1.9 µM
same,TGI,SK-OV-3 ovarian,3.78 µM
same,GI50,CCRF-CEM leukemia,1.93 µM
same,TGI,CCRF-CEM leukemia,5.47 µM
same,GI50,ACHN renal,1.87 µM
same,TGI,ACHN renal,3.83 µM
same,GI50,LOX IMVI melanoma,1.79 µM
same,TGI,LOX IMVI melanoma,3.41 µM
same,GI50,U251 CNS,1.35 µM
same,TGI,U251 CNS,2.64 µM
same,GI50,UO-31 renal,1.79 µM
same,TGI,UO-31 renal,3.82 µM
O=[N+]([O-])c1ccc(/C=C(/c2ccc([N+](=O)[O-])o2)S(=O)(=O)c2ccccc2)o1,TGI,SK-OV-3 ovarian,90.8 µM
same,TGI,HOP-92 NSCLC,27.8 µM
same,TGI,ACHN renal,8.69 µM
same,TGI,U251 CNS,29.4 µM
same,TGI,UO-31 renal,16.3 µM
same,TGI,EKVX NSCLC,22.8 µM
same,TGI,TK-10 renal,15.2 µM
CCCCCCNc1nc(N2CCOCC2)c2[nH]c(NCCCCCC)nc2n1,GI50,SK-OV-3 ovarian,1.73 µM
same,TGI,SK-OV-3 ovarian,3.14 µM
same,GI50,ACHN renal,1.6 µM
same,TGI,ACHN renal,2.95 µM
same,GI50,LOX IMVI melanoma,1.48 µM
same,TGI,LOX IMVI melanoma,2.8 µM
same,GI50,U251 CNS,1.61 µM
same,TGI,U251 CNS,3.18 µM
same,GI50,UO-31 renal,1.36 µM
same,TGI,UO-31 renal,2.84 µM
same,GI50,HCC-2998 colon,1.7 µM
same,TGI,HCC-2998 colon,3.07 µM
same,GI50,TK-10 renal,1.87 µM
same,TGI,TK-10 renal,3.45 µM
CC1(C)CC(=O)C(=[N+]=[N-])C(=O)C1,TGI,SK-OV-3 ovarian,> 100 µM
same,TGI,HOP-92 NSCLC,> 100 µM
same,TGI,CCRF-CEM leukemia,> 100 µM
same,TGI,ACHN renal,> 100 µM
same,TGI,LOX IMVI melanoma,> 100 µM
same,TGI,HCC-2998 colon,> 100 µM
same,TGI,EKVX NSCLC,> 100 µM
same,TGI,TK-10 renal,> 100 µM
